Results on six compounds are retold here after ChEMBL document CHEMBL1201862, “PubChem BioAssay data set” (2004).

Active and inactive are the calls of the source.

One test can be described thus: cells. The format is functional.
Test [1] in a line: THP-1 cell cytotoxicity, dose response, cytotoxicity control for non-replicating M. tuberculosis project (AID 489025). It counts as functional.
Test [2] addresses T1, Orexin/Hypocretin receptor type 1 (Homo sapiens, UniProt O43613).
T1 sequence (O43613 whole entry): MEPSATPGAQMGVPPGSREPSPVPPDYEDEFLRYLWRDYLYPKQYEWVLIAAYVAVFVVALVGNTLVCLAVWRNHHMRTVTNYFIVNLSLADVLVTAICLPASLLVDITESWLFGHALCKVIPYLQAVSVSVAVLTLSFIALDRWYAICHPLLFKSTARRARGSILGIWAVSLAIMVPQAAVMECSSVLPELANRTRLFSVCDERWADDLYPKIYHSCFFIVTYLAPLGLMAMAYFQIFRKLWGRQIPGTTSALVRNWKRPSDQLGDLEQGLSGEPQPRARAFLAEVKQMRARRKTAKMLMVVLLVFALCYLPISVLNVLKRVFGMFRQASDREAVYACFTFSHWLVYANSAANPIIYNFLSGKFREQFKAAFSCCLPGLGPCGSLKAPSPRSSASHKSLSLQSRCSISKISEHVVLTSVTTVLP
The test is described as follows: Homogeneous Time Resolved Fluorescence (HTRF)-based cell-based high throughput dose response assay for antagonists of the orexin 1 receptor (OX1R; HCRTR1). [Related pubchem assays (depositor defined):AID434989, AID435008, AID463079, AID485270, AID492963, AID492964, AID492965, AID493232, AID504717, AID504718]. It counts as functional. For orientation: Time-resolved FRET reads energy transfer from a long-lived donor to a nearby acceptor.

A further test relates to CHO-K1. The test is described as follows: Counterscreen for antagonists of the orexin 1 receptor (OX1R; HCRTR1): Homogeneous time resolved fluorescence (HTRF)-based cell-based dose response assay to identify antagonists of the parental CHO-K1 cell line. [Related pubchem assays (depositor defined):AID434989, AID435008, AID463079, AID485270, AID492963, AID492964, AID492965, AID493232, AID504699, AID504701]. It counts as functional. As to conditions: Cricetulus griseus. On the technique in general: The purpose of a counterscreen is to sort out artefacts and off-target activity.

A short description of test [3]: HepG2 cell cytotoxicity, dose response, cytotoxicity control for non-replicating M. tuberculosis project (AID 489018). The format is functional. As to conditions: Mycobacterium tuberculosis.
The nature of test [4]: Counterscreen for antagonists of the orexin 1 receptor (OX1R; HCRTR1): Fluorescence-based cell-based high throughput dose response assay to identify antagonists of the parental CHO cell line. [Related pubchem assays (depositor defined):AID434989, AID435008, AID463079, AID485270, AID492963, AID492964, AID492965, AID493232, AID504699, AID504701]. It counts as functional.
For test [5], the target named is T1, Orexin/Hypocretin receptor type 1. The test is described as follows: Fluorescence-based cell-based high throughput dose response assay for antagonists of the orexin 1 receptor (OX1R; HCRTR1). [Related pubchem assays (depositor defined):AID434989, AID435008, AID463079, AID485270, AID492963, AID492964, AID492965, AID493232, AID504717, AID504718]. It counts as functional.

Test [6] deals with G-protein coupled receptor 55 (Homo sapiens, UniProt Q9Y2T6). The test is described as follows: inhibition of LPI-stimulated GPR55 beta-arrestin translocation – imaging, U2OS, beta-arrestin-GFP, LPI agonist, primary screen (AID 2013).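 Further: antagonist potency measured as reduced agonist-driven arrestin aggregation.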 It counts as functional.
Test [7] deals with T2, RNA-editing ligase 1, mitochondrial (Trypanosoma brucei brucei, UniProt P86926).
T2 sequence (P86926 whole entry): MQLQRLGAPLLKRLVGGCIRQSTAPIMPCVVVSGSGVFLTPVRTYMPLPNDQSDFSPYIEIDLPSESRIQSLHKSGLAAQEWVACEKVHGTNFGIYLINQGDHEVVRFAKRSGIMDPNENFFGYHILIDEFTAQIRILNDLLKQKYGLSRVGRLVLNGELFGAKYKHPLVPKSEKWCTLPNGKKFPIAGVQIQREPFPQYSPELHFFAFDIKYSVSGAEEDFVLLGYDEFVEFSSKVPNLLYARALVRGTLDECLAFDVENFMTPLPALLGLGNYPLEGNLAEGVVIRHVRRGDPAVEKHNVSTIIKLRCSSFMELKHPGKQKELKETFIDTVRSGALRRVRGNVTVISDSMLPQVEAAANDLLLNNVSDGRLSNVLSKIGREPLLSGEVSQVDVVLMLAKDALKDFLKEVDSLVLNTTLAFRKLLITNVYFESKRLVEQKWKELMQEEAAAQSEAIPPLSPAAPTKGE
The test is described as follows: inhibition of trypanosome RNA editing ligase – biochemical, fluorescence, Trypanosoma brucei, dose response (AID 1117295). It counts as functional.

A further test addresses SUMO E1/E2 (Homo sapiens, UniProt P63279+Q9UBE0+Q9UBT2). The test is described as follows: SAR analysis of SUMOylation using HTRF in an in-Vitro dose response assay. [Related pubchem assays (depositor defined):AID2006, AID2011, AID2018, AID2069, AID2658]. It counts as functional.
A further test deals with T3, Exodeoxyribonuclease V (Escherichia coli (strain K12), UniProt P04993+P07648+P08394).
T3 sequence (P04993 whole entry): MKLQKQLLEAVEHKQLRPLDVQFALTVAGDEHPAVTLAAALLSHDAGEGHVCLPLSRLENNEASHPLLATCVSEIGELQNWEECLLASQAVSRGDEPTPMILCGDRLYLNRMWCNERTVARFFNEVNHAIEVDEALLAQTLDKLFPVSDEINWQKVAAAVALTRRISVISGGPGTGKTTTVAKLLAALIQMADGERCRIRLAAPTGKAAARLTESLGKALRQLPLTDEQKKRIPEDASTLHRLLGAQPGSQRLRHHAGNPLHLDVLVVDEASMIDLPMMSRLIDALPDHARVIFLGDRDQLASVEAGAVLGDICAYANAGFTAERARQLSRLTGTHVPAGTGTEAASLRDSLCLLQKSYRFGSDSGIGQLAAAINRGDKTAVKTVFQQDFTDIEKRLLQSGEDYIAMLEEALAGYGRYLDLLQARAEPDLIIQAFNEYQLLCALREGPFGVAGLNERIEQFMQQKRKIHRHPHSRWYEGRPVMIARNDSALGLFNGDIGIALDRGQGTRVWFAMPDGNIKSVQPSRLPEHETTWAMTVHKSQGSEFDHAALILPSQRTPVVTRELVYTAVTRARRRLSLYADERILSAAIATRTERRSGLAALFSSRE
T3 sequence (P07648 whole entry): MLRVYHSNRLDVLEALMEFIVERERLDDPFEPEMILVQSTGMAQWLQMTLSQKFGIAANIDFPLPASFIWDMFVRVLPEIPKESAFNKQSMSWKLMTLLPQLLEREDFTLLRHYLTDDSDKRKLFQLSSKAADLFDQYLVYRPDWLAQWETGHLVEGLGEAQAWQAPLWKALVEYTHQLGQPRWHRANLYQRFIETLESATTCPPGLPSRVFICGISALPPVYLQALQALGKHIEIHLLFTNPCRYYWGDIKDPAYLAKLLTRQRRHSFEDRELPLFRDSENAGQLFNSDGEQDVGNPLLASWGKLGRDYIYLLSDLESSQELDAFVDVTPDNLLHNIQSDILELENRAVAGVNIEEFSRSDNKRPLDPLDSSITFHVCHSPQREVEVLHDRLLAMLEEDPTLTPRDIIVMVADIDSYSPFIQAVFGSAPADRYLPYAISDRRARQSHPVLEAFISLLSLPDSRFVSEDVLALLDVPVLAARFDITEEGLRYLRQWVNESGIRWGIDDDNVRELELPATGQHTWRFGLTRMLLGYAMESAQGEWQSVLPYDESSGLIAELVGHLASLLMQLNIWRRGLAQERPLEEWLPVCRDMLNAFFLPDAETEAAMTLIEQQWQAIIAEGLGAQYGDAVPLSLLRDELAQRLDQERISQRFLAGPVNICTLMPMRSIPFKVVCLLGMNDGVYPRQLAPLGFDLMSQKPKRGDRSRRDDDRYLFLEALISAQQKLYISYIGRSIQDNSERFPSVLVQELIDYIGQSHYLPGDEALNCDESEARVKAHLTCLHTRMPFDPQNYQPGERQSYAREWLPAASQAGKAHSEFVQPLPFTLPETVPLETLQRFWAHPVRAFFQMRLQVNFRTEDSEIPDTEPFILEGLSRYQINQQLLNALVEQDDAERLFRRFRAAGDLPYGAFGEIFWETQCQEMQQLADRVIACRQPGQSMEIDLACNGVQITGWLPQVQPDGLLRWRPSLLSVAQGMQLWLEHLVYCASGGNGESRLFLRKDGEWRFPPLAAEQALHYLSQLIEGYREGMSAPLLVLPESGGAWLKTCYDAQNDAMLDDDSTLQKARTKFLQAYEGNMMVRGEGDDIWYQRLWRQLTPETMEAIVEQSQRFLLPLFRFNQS
T3 sequence (P08394 whole entry): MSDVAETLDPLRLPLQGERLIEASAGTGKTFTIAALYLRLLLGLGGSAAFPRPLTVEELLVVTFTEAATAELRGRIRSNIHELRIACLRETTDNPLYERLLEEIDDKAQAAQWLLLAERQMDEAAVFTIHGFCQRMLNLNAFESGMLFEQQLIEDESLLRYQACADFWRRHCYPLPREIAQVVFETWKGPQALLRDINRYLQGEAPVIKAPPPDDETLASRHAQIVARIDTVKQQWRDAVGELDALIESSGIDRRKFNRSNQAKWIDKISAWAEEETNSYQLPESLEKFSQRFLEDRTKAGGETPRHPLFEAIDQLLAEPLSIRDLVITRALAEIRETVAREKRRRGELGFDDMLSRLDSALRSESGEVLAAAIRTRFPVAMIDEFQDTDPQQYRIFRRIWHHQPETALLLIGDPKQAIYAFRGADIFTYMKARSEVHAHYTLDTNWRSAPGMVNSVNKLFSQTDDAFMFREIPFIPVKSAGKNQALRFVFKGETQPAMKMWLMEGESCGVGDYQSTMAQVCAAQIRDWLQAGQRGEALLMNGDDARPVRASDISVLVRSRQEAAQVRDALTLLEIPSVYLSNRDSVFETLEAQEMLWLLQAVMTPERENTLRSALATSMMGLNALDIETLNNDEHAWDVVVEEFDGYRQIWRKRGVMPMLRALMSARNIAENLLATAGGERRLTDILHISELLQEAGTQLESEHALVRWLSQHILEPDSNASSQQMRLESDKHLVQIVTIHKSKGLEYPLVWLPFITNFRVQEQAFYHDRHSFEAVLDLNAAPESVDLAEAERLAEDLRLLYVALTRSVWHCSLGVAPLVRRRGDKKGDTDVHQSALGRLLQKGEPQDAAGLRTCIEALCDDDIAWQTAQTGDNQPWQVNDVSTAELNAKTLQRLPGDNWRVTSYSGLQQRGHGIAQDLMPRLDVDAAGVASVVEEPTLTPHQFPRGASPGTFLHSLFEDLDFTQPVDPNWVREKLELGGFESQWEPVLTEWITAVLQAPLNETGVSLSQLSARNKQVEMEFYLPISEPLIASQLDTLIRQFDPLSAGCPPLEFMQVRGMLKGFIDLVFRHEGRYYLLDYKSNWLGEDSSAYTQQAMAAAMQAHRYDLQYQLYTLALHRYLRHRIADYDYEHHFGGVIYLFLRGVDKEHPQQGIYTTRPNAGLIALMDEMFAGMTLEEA
The test is described as follows: RecBCD inhibition via phage-restricted bacterial growth – absorbance, V66 E. coli, mutant T4 phage, counter-screen for AddAB inhibitor project, dose response (AID 492957). It counts as functional, cell-based, Escherichia coli str. K-12 substr. MG1655.

Test [8] in a line: Counterscreen for AddAB inhibitors: absorbance-based bacterial cell-based high throughput dose response assay for inhibitors of bacterial viability. [Related pubchem assays (depositor defined):AID435030, AID449728, AID449731, AID488942, AID488955, AID488956]. The format is functional.
In another test the target is SUMO-activating enzyme (Homo sapiens, UniProt Q9UBT2). The test is described as follows: blockers of UBC9-mediated SUMO conjugation – biochemical, AlphaScreen, SUMOylation inhibitor project, confirmation (AID 2018). The format is functional. (In Alpha technology, singlet oxygen from a donor bead excites a nearby acceptor bead.)
Test [9] can be described thus: luciferase reporter signal suppression in cells – H4 neuroglioma cells, luminescence, dose response (AID 1990). It counts as functional, cell-based.
Test [10] in a line: alpha-synuclein stem-loop luciferase translation blockers – H4 neuroglioma cells, luminescence, confirmation (AID 1988). It counts as functional, cell-based.
Test [11] in a line: Luminescence Cell-Based Dose Response HTS to Identify Inhibitors of 5'UTR Stem-Loop Driven Prion Protein mRNA Translation in H4 Neuroglioblastoma Cells. [Related pubchem assays: 1827 (Project Summary), 1813 (Primary HTS)]. It counts as functional.

SUMO E1/E2, sequence (Q9UBE0 whole entry): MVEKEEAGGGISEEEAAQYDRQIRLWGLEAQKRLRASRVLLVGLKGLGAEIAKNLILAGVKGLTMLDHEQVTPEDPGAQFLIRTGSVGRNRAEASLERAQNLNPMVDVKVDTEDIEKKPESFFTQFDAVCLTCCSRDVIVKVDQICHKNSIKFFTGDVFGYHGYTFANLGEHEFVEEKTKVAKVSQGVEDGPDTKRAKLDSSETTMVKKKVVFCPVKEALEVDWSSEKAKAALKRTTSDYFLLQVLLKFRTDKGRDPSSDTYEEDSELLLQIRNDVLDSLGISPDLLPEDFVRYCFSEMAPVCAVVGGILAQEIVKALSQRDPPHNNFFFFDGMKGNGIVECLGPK
SUMO E1/E2, sequence (Q9UBT2 whole entry): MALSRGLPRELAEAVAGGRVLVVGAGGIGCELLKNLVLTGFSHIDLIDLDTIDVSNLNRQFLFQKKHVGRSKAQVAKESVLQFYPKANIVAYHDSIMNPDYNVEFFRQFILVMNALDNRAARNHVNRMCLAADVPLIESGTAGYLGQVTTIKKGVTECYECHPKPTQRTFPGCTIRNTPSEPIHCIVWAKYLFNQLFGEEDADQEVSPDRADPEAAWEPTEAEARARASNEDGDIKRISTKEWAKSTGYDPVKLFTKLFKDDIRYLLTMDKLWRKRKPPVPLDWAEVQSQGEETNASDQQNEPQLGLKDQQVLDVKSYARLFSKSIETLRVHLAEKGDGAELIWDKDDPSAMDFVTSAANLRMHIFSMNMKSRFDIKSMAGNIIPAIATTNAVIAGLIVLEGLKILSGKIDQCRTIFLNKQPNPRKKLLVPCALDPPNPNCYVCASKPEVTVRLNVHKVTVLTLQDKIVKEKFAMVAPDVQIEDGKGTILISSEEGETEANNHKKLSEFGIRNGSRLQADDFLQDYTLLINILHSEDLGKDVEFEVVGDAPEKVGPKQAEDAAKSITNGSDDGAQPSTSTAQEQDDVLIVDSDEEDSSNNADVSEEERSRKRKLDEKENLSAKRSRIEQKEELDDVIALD
SUMO E1/E2, sequence (P63279 whole entry): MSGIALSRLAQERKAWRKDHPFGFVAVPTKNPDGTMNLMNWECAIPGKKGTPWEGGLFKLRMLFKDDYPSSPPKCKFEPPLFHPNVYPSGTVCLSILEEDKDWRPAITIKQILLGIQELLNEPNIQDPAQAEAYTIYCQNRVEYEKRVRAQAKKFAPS
SUMO-activating enzyme, sequence (Q9UBE0 whole entry): as the sequence (Q9UBE0 whole entry) above
SUMO-activating enzyme, sequence (Q9UBT2 whole entry): as the sequence (Q9UBT2 whole entry) above
G-protein coupled receptor 55, sequence (Q9Y2T6 whole entry): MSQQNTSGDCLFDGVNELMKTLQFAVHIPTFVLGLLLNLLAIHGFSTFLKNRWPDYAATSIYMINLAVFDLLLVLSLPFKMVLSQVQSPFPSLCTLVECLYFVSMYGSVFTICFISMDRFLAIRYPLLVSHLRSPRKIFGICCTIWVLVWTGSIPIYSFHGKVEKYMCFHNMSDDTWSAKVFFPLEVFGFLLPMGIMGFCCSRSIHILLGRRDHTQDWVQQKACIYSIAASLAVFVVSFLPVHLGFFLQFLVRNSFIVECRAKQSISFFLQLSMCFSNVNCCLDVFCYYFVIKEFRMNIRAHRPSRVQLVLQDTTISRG

In the case of `COC(=O)C1=C(C)N(Cc2ccccc2)C(NCc2ccccc2)=N[C@H]1c1cccc(F)c1`, the IC50 (commonly the point on the concentration scale where inhibition reaches its midpoint) was 19.8 µM (active) in “cells”; > 66.2 µM (inactive) in [2]; > 66.2 µM (inactive) with CHO-K1; 23.8 µM (inactive) in test [4]; 17.9 µM (inactive) in [5]; 1.25 µM (active) in test [6]. In test [7], the IC50 is > 96.6 µM (inactive). Moreover, the CC50 (commonly the concentration that lowers cell viability or growth by half) in [1] is 15 µM (active); in test [3], 14.9 µM (active).
For `Cc1ccc(Nc2cc3ccccc3c(=O)[nH]2)cc1`, the IC50 at SUMO E1/E2 is 19.8 µM (active).
For the compound `CC(=O)N(O)CCCCCNC(=O)CCC(=O)N(O)CCCCCNC(=O)CCC(=O)N(O)CCCCCNC(=O)CCC(=O)O`, the IC50 (at Exodeoxyribonuclease V; in [8]) was > 118 µM (inactive) each time.
As for `Cc1ccc(-c2nc3ccccc3o2)cc1NC(=O)c1ccc2c(c1)OCO2`, the IC50 at SUMO-activating enzyme is 34.1 µM (active).
As to `Cc1ccc(C2Nc3ccc(C(=O)O)cc3C3C=CCC32)cc1` (stereo not drawn), at SUMO E1/E2, the IC50 was > 100 µM (inactive).
In the case of `Nc1c2cnnc-2nc(SCC(=O)c2ccc(Br)cc2)n1-c1ccc(Br)cc1`, the EC50 in [9], in test [10] and in [11] was > 120 µM (not active) in each case. The IC50 at SUMO-activating enzyme is 59.1 µM (active).
